Results: patent US20250057951A1, “DISCERNIBLE CELL SURFACE PROTEIN VARIANTS OF CD117 FOR USE IN CELL THERAPY” (UNIVERSITÄT BASEL, priority 2021, published 2025)
Entries after “also recorded” stand apart in the source; their conditions may differ.

How the values were obtained:
TF-1 cells [1] = experiment: SCF-dependent phosphorylation of CD117 variants in TF-1 cells (Tyr719 ELISA); format: cell-based, human; conditions: 1-20 ng/ml SCF for 5 minutes
Description: TF-1 cells (wild type, knock out, and variants E73K, D121K and S123K of CD117) were seeded at a concentration of 1 million cells/ml in 2 ml of Medium (RPMI1640 supplemented with GlutaMAX+10% heat inactivated FBS) in a 6-well plate. Cells were treated with 1-20 ng/ml recombinant human SCF (1 mg/ml PeproGMP Recombinant Human SCF) for 5 minutes, before cell collection. Cells were washed with ice-cold PBS, before resuspending cells in 500 μL Lysis Buffer (Lysis buffer from Signaling containing Protease Inhibitor and Phosphatase Inhibitor). Cells were flash frozen in liquid nitrogen and thawed at 37° C. twice, before freezing them at −80° C. until further usage. Undiluted samples were thawed and processed according to the manufacturers protocol for the PathScan Phospho-c-Kit (Tyr719) Sandwich ELISA Kit (Cell Signaling). Absorbance (OD_450 nm) was assessed using the Envision (Perkin Elmer).

TF-1 cells [2] = experiment: SCF-dependent proliferation, SCF titration on TF-1 cells with CD117 variants (CellTiter-Glo); format: cell-based, human; conditions: for EC50 Average: average of two experiments; for EC50 Experiment #1 / EC50 Experiment #2: titration of SCF, 3 days, TF-1 cells with the CD117 variant
Description: In another experiment, SCF-dependent proliferation of variants E73K, E73Y, D121K, S123F and S123K was compared against wildtype CD117. TF-1 cells were seeded at a cell concentration of 150 000 cells/ml in sterile, white cell culture treated plates with transparent bottom in RPMI+GlutaMax+10% FCS. Cells were treated with a titration of SCF. After 3 days of incubation a CellTiter-Glo 2.0 assay (Promega) was performed, luminescence was read in a luminometer (Envision plate reader) and EC50's was determined. Two different experiments with triplicates in each experiment were performed.

Refmab #1 = Refmab #1 titration on engineered TF-1 cells (flow cytometry); format: binding; conditions: 5-0.00015 μg/mL antibody; 4° C.
Chain of Refmab #1 (as listed by the source): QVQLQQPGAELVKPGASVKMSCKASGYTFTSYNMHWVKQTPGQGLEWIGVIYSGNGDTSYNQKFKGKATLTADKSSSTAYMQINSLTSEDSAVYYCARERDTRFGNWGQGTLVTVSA
Chain of Refmab #1 (as listed by the source): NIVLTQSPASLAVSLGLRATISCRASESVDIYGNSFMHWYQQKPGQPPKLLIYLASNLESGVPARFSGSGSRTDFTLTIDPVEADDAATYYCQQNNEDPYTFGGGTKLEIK
Description: Binding of Refmab #1 was assessed in a flow cytometry assay. TF-1 cells were seeded at a cell concentration of 1,000,000 cells/ml in FACS Buffer (PBS+2% FCS+1 mM EDTA). After a Fc blocking using 1:20 diluted TruStain (BioLegend, #422302) in FACS buffer for 15 minutes at 4° C., cells were washed twice with FACS buffer. Subsequently, a SR-1 titration was added to the cells using 5-0.00015 μg/mL antibody for 30 minutes at 4° C. on a plate shaker. Cells were washed twice with FACS buffer and a secondary labelled antibody (IgG (H+L) Cross-Adsorbed Goat anti-Human, Alexa Fluor® 488, Invitrogen, A11013) was added to the cells for 30 minutes at 4° C. on a plate shaker. Cells were washed twice with FACS buffer, before adding 1:100 diluted solution of 7AAD staining (cell viability) in FACS buffer for a couple of minutes and analyzing the cells using the Novocyte Quanteon (Agilent).

antibody Refmab #1 [3] = experiment: Octet screen: binding of CD117 D1-2-3 variants to captured Refmab #1; conditions: nm shift at end of association, top analyte concentration (500 nM)
Method in brief: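 Refmab #1 captured on anti-human Fc biosensors; human CD117 D1-2-3 wt or variants flowed as analyte at 500, 50 and 5 nM, 25° C., 300 s association/900 s dissociation, buffer-referenced. Binding level at top concentration, end of association, expressed as percent of wild type; 1:1 fits where possible.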

antibody Refmab #1 [4] = experiment: Octet titration, steady state KD of CD117 D1-2-3 variants to Refmab #1; format: binding; conditions: nm shift higher than 0.1 nm counts as binding
Description: To further characterize binding of Refmab #1 to CD117 D1-2-3 variants E73K, E73L, E73R, E73Y, D121H, D121K, S123K and S123F, the analytes were titrated at 7 different concentrations (from 2000 nM to 5 nM). Antibody Refmab #1 was captured by AHC biosensors for 300 s at 0.5 to 1 μg/mL. Association and dissociation to Refmab #1 was extended to 600 s and 1000 s, respectively. Steady state analysis was performed.

human wild-type CD117 [5] = molecular target: T1, human wild-type CD117 (human, UniProt P10721 26-976); experiment: flow cytometry, HEK-293T with wt CD117 vs vector alone, IgG at 0.125 µg/mL
T1 construct: also called wt CD117; KIT
Description: Binding of the antibodies to the transfected cells and the optimal assay conditions were evaluated in 384-well format. Detection of cellular expression was measured via high-throughput flow cytometry. Serial dilutions of each antibody were tested for immunoreactivity against cells expressing CD117 or vector alone. The optimal screening concentration for each antibody was determined based on the raw signal values and signal-to-background calculations. Each point represents the mean of four replicates.

human wild-type CD117 [6] = molecular target: T1, human wild-type CD117; experiment: flow cytometry, HEK-293T with wt CD117 vs vector alone, Fab at 1.00 µg/mL
SCF = molecular target: T2, SCF (Homo sapiens, UniProt P21583); experiment: Octet: binding of CD117 D1-2-3 variants to SCF; conditions: CD117 D1-2-3 constructs; steady state
T2 construct: purchased Acros Biosystems SCF-H82E1
T2 sequence (P21583 26-273): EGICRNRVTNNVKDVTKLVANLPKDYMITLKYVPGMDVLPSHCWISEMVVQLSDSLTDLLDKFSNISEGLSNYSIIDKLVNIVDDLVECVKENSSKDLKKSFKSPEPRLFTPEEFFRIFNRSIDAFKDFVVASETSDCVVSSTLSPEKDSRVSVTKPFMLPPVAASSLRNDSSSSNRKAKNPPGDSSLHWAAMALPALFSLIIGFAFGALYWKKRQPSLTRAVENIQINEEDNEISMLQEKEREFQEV
Description: SCF binding is one function of CD117. SCF binding is important for the transmission of functional signals by CD117. Binding of the elected variants to SCF was measured on an Octet system RED96e or R8 at 25° C. with shaking at 1000 rpm using 1× Kinetic Buffer (Sartorius, PN: 18-1105). […] Domain 1, 2, 3 comprise the binding site for SCF. Domains 4 and 5 were used as a negative, non-binding control.
CD117 D1-2-3 wt and variants thereof are titrated with different concentrations from 1000 to 5 nM. Association was monitored for 300 s and dissociation for 600 s. Binding to human CD117 domain 4 and 5 (CD117 D4-5) was performed under the same conditions as non-binding control. Reference subtraction was performed against buffer only wells. Biosensors were not regenerated and a new set of SA biosensors was used for each analyte. Data were analyzed using the Octet Data Analysis software HT 12.0. Steady state data analysis was performed due to the fast on/off nature of the interaction.

Refmab #2 = experiment: Octet: binding of CD117 variants to Refmab #2; conditions: qualitative Octet analysis
Description: A more sophisticated analysis of binding to the elected variants was performed with antibody Refmab #1. Binding of Refmab #1 to wt and variants (analyte) was measured in an Octet system RED96e or R8 at 25° C. with shaking at 1,000 rpm using 1× kinetic buffer (Sartorius, PN: 18-1105). First, the elected variants were screened for their ability to bind Refmab #1 using three different concentrations of analytes. Antibody Refmab #1 was captured by Anti-Human Fc capture biosensor (AHC) (Sartorius, PN: 18-5060) for 300 s at 0.5 to 1 μg/mL. As an analyte, human CD117 wt and variants, containing only domains 1, 2 and 3 (CD117 D1-2-3), was titrated at 500 nM, 50 nM and 5 nM. Association and dissociation of the analyte to Refmab #1 was monitored for 300 s and 900 s, respectively. Reference subtraction was performed against buffer only wells. AHC tips were regenerated using 10 mM Gly-HCl pH 1.7. Data were analyzed using the Octet Data Analysis software HT 12.0. Data were fitted (when possible) to a 1:1 binding model. Kinetic rates ka and […] globally fitted. Binding level of the elected variants were compared to wild type and are shown as percent in FIG. 7. For this qualitative analysis, the binding level of the top analyte concentration at end of the association step was used.
A similar experiment to that in Example 7 was performed, but utilizing Refmab's #2 and #3.

For “D121K: variant of human CD117 with substitution D121K”, the “SCF-dependent phosphorylation at position Tyr719 of CD117” value (TF-1 cells [1]) was “showed a SCF-dependent phosphorylation”, the “EC50 Average” value (TF-1 cells [2]) was 3.70 ± 0.45 ng/mL and the “EC50 Experiment #1” value (TF-1 cells [2]) was 4.15 ng/mL. The “EC50 Experiment #2” value (TF-1 cells [2]) was 3.25 ng/mL, the “Binding of Refmab #1 to TF-1 cells expressing the CD117 variant” value (Refmab #1) was “completely abolished” and the “binding to Refmab #1 compared to wild type” value (antibody Refmab #1 [3]) was “particular strong decrease in binding”. For the same molecule, the “binding of Refmab #1 at 2000 nM variant” value (antibody Refmab #1 [4]) was “No binding”.

In the case of “S123K: variant of human CD117 with substitution S123K”, the “SCF-dependent phosphorylation at position Tyr719 of CD117” value (TF-1 cells [1]) is reported as “showed a SCF-dependent phosphorylation”, the “EC50 Average” value (TF-1 cells [2]) is reported as 3.54 ± 0.23 ng/mL and the “EC50 Experiment #1” value (TF-1 cells [2]) is reported as 3.76 ng/mL. The “EC50 Experiment #2” value (TF-1 cells [2]) was 3.31 ng/mL, the “Binding of Refmab #1 to TF-1 cells expressing the CD117 variant” value (Refmab #1) was “completely abolished” and the “binding to Refmab #1 compared to wild type” value (antibody Refmab #1 [3]) was “particular strong decrease in binding”. For the same molecule, the “binding of Refmab #1 at 2000 nM variant” value (antibody Refmab #1 [4]) was “No binding”.

B1: Refmab #5 (antibody, V domains shown)
VH: EVRLVESEGGLVQPRSSMKLSCTASGFTFSDYYMAWVRQVPEKGLEWVANINYDGSSTYYLDSLKSRFIISRDNAKNILYLQMSSLKSEDTATYYCARGDYYGTTYWYFDVWGTGTTVTVSS
VL: DIQMTQTTSSLSASLGDRVTISCRASQDISNYLNWYQQKPDGTVKLLIYYTSRLQSGVPSRFSGSGSGTDYSLTISNLEQEDIATYFCQQGKKLWSFGGGTKLEIKR
In the case of B1, the “Signal:Background” value (human wild-type CD117 [5]) is reported as 10 ratio to background.

B2: Refmab #5 Fab fragment (Fab, V domains shown)
VH: B1 VH
VL: B1 VL
In the case of B2, the “Signal:Background” value (human wild-type CD117 [6]) is reported as 7 ratio to background.

B3: S239H: variant of human CD117 with substitution S239H (protein)
chain: QPSVSPGEPSPPSIHPGKSDLIVRVGDEIRLLCTDPGFVKWTFEILDETNENKQNEWITEKAEATNTGKYTCTNKHGLSNSIYVFVRDPAKLFLVDRSLYGKEDNDTLVRCPLTDPEVTNYSLKGCQGKPLPKDLRFIPDPKAGIMIKSVKRAYHRLCLHCSVDQEGKSVLSEKFILKVRPAFKAVPVVSVSKASYLLREGEEFTVTCTIKDVHSSVYSTWKRENSQTKLQEKYNSWHHGDFNYERQATLTISSARVNDSGVFMCYANNTFGSANVTTTLEVVDKG
For B3, the “KD increase of SCF binding compared to wild type CD117” value (SCF) was “less than three-fold; also recorded: less than four-fold” and the “binding to Refmab #2 compared to wild type CD117” value (Refmab #2) was “strong decrease in binding”.

B4: Refmab #4 (antibody, V domains shown)
VH: EVQLVESGGGLVQPGGSLRLSCAASGFSISVYMMHWVRQAPGKGLEWVASIYPYSGYTYYADSVKGRFTISADTSKNTAYLQMNSLRAEDTAVYYCARYVYHALDYWGQGTLVTVSS
VL: DIQMTQSPSSLSASVGDRVTITCRASQSVSSAVAWYQQKPGKAPKLLIYSASSLYSGVPSRFSGSRSGTDFTLTISSLQPEDFATYYCQQWAVHSLITFGQGTKVEIKR
In the case of B4, the “Signal:Background” value (human wild-type CD117 [5]) is reported as 7 ratio to background.

B5: Refmab #4 Fab fragment (Fab, V domains shown)
VH: B4 VH
VL: B4 VL
For B5, the “Signal:Background” value (human wild-type CD117 [6]) was 6 ratio to background.
